In article PMC12198407, “Preclinical and first-in-human of purinostat mesylate, a novel selective HDAC I/IIb inhibitor, in relapsed/refractory multiple myeloma and lymphoma” (Signal Transduction and Targeted Therapy, 2025):
Like-named read-outs stand apart in the source and are kept apart here.

Key:
HDAC1 = HDAC1 (Homo sapiens, UniProt Q13547); assay: HDAC enzyme activity in vitro; format: biochemical
HDAC6 = HDAC6 (Homo sapiens, UniProt Q9UBN7); assay: HDAC enzyme activity in vitro; format: biochemical
Sequence of HDAC6 (Q9UBN7 whole entry): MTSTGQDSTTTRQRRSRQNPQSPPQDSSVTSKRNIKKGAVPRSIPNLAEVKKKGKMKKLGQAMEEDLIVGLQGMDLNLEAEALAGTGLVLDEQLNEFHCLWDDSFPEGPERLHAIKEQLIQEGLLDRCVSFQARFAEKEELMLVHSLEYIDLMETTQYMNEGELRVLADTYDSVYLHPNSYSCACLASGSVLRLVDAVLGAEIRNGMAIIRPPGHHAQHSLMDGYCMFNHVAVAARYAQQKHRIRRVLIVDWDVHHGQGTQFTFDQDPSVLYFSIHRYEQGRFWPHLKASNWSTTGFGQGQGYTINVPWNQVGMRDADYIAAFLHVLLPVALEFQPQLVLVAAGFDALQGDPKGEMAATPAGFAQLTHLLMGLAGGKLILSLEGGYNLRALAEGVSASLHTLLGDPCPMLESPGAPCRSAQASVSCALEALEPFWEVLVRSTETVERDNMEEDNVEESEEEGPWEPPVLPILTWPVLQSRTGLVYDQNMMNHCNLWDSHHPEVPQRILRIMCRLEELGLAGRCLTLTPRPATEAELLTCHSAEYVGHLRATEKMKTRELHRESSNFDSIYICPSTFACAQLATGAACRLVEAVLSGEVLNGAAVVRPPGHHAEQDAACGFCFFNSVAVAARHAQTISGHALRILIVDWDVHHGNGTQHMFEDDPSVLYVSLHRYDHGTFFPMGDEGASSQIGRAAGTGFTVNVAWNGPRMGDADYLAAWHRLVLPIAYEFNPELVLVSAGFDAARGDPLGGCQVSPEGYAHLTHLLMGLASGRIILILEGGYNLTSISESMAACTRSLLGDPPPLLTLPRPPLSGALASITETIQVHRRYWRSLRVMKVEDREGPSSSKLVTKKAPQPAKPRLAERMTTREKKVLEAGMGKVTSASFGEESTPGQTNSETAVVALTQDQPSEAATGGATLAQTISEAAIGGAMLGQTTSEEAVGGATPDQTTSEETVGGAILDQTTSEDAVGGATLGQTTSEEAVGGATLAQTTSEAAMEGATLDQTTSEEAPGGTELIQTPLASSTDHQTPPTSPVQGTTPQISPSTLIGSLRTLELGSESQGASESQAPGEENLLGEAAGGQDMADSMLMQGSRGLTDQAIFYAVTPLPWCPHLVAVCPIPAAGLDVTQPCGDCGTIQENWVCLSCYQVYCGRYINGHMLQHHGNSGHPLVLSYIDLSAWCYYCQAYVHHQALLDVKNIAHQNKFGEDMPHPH

HDAC10 = HDAC10 (Homo sapiens, UniProt Q969S8); assay: HDAC enzyme activity in vitro; format: biochemical
Sequence of HDAC10 (Q969S8 whole entry): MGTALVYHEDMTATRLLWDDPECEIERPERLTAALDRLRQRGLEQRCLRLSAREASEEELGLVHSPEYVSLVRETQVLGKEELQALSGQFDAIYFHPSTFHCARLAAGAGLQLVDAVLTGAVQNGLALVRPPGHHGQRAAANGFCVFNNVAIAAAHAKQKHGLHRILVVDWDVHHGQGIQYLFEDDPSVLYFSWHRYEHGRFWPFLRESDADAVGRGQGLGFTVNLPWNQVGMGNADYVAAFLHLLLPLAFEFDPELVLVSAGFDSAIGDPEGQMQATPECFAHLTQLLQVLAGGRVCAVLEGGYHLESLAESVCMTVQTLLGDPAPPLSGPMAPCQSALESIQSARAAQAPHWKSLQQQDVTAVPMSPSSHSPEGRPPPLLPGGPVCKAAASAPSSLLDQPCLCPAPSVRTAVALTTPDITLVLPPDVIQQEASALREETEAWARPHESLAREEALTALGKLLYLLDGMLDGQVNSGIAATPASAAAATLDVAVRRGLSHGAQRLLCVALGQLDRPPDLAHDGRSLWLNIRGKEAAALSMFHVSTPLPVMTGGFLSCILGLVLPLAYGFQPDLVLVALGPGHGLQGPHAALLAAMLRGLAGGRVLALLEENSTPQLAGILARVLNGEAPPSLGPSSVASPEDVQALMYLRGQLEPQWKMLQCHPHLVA

HDAC9 = HDAC9 (Homo sapiens, UniProt Q9UKV0); assay: HDAC enzyme activity in vitro; format: biochemical
Sequence of HDAC9 (Q9UKV0 whole entry): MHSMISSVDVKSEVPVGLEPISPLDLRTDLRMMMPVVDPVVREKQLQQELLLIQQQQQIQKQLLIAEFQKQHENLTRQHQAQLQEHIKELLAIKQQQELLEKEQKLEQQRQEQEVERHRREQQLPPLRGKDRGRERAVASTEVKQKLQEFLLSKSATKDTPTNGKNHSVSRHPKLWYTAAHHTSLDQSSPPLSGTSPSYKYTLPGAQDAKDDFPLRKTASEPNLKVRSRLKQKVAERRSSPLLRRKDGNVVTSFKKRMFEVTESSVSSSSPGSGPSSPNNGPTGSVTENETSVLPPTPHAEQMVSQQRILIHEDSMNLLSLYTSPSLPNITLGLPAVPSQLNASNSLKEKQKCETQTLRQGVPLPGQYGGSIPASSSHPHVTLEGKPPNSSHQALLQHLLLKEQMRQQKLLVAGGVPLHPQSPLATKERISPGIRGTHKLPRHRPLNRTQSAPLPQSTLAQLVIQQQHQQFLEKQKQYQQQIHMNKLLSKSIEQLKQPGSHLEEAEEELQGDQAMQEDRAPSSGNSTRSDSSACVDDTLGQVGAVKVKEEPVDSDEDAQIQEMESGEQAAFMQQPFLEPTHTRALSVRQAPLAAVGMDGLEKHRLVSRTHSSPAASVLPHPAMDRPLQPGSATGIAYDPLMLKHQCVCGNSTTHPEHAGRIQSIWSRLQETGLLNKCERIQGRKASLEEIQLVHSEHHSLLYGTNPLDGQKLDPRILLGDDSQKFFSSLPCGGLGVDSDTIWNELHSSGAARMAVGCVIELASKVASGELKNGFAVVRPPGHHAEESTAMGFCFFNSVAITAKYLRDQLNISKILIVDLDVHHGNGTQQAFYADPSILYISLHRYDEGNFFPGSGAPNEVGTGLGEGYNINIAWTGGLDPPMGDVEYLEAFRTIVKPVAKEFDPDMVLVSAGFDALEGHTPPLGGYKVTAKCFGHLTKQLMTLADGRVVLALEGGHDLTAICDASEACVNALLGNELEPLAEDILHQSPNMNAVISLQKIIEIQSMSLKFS

AMO1 = assay: Cell viability CCK8; format: cell-based; details: Homo sapiens; AMO1, 72 h; no unit in table; read-out: Antiproliferative activity IC50
Description: (§1) PM, panobinostat, Pom and DXM were dissolved in DMSO and stored at -20°C freezer. Cells were seeded at a density of 1.0-3.0 × 10^4 cells/well/100 μL in 96-well plates. After overnight incubation, cells were treated with the drug-containing culture medium for 24, 48, or 72 hours, and cell viability was measured using CCK8 (Oriscience, Chengdu, China) at the indicated time points with Biotek Cytation 3 at a wavelength of 450 nm. The IC50 values were calculated using GraphPad Prism 9.4.1, and Calcusyn 2.0 software was employed to calculate the CI values.

Daudi = assay: Cell viability CCK8; format: cell-based; details: Homo sapiens, 72 h, no unit in table, read-out: Antiproliferative activity IC50
Description: as §1

KMS-11 = assay: Cell viability CCK8; format: cell-based; details: Homo sapiens; KMS-11, 72 h; no unit in table; read-out: Antiproliferative activity IC50
Description: as §1

Karpas299 = assay: Cell viability CCK8; format: cell-based; details: Homo sapiens, KARPAS-299; Karpas299, 72 h; no unit in table; read-out: Antiproliferative activity IC50
Description: as §1

MM1R = assay: Cell viability CCK8; format: cell-based; details: Homo sapiens, MM.1R, 72 h, no unit in table, read-out: Antiproliferative activity IC50
Description: as §1

MM1S = assay: Cell viability CCK8; format: cell-based; details: Homo sapiens, MM1.S, 72 h, no unit in table (b9: nM), read-out: Antiproliferative activity IC50
Description: as §1

NKYS = assay: Cell viability CCK8; format: cell-based; details: Homo sapiens, 72 h, no unit in table, read-out: Antiproliferative activity IC50
Description: as §1

OPM2 = assay: Cell viability CCK8; format: cell-based; details: Homo sapiens, OPM-2; OPM2, 72 h; no unit in table; read-out: Antiproliferative activity IC50
Description: as §1

RPMI-8226R = assay: Cell viability CCK8; format: cell-based; details: Homo sapiens, 72 h, no unit in table, read-out: Antiproliferative activity IC50
Description: as §1

Raji = assay: Cell viability CCK8; format: cell-based; details: Homo sapiens, 72 h, no unit in table, read-out: Antiproliferative activity IC50
Description: as §1

Ramos = assay: Cell viability CCK8; format: cell-based; details: Homo sapiens, 72 h, no unit in table, read-out: Antiproliferative activity IC50
Description: as §1

SUDHL-4 = assay: Cell viability CCK8; format: cell-based; details: Homo sapiens, SU-DHL-4; SUDHL-4, 72 h; no unit in table; read-out: Antiproliferative activity IC50
Description: as §1

TMD-8 = assay: Cell viability CCK8; format: cell-based; details: Homo sapiens, TMD8; TMD-8, 72 h; no unit in table; read-out: Antiproliferative activity IC50
Description: as §1

[1] = tested on: c-MYC/KRAS12V transformed BaF3 cells; assay: Cell viability CCK8; format: cell-based
Description: as §1
Mice were weighed every two days. All data are represented as mean ± SEM.

[2] = tested on: double-expressing lymphoma (DEL) PDX; assay: DEL PDX mouse model; format: in vivo, mice; details: 18 days; PM 5 mg/kg or 10 mg/kg
Description: All animal studies were performed in accordance with the guidelines approved by the Institutional Animal Care and Use Committee of Sichuan University, Chengdu, China. Six- to seven-week-old female NOD-SCID mice were purchased from Beijing Vital River Laboratory Animal Technology Co., Ltd. (China). Mice received subcutaneous inoculation with 0.5 × 10^7 MM1S or RPMI-8226 cells, to establish xenograft models. Heterotopic PDX models were generated as previously described.[54] When tumors reached 150–250 mm^3, mice were treated with various compounds. PM and panobinostat were administered intravenously three times a week at 5 mg/kg in combination therapy. […] Tumor volume (tumor volume (mm^3) = π/6 × length × width^2) and body weights were measured every two days. At the end, tumor tissues were weighed, and antitumor activity was evaluated by the tumor inhibition rate = (1 − tumor weight of treatment group/tumor weight of vehicle group) × 100%.

[3] = tested on: human Burkitt lymphoma Daudi; assay: Daudi subcutaneous tumor model; format: in vivo, NOD/SCID mice; details: for average median survival time: satellite group
[4] = tested on: Salmonella typhimurium TA97, TA98, TA100, TA102, TA1535; assay: Microbial reverse mutation test (Ames); details: 50–5000 μg/plate, with and without S9
Description: In this experiment, two methods were selected: one with the S9 metabolic activation system and one without. The test strains used were histidine-dependent mutant strains of Salmonella typhimurium, specifically TA97, TA98, TA100, TA102, and TA1535. Under both conditions, with and without the S9 metabolic activation system, Purinostat Mesylate was tested at a maximum dose of 5000 μg/plate, along with four additional dose groups of 1500, 500, 150, and 50 μg/plate. A solvent control group (DMSO) and a positive control group (administering the appropriate positive agent) were also included, with each concentration tested in triplicate. The experiment was repeated once.

[5] = Metabolic stability in liver microsomes; format: in vitro ADME; details: for half-life at 1 µM: NADPH, 37°C; for CLint scaled at 1 µM: read-out: liver intrinsic clearance (CLint)
Description: The metabolic stability of Purinostat Mesylate was evaluated in CD-1 mice, SD rats, Beagle dogs, crab-eating monkeys, and human liver microsomes. Under conditions of 37°C, 1 µM of Purinostat Mesylate was incubated with liver microsomes from the five species mentioned above, supplemented with a NADPH regeneration system, for varying durations up to 60 minutes. The concentration of Purinostat Mesylate in the resulting samples was analyzed using LC/MS/MS.

Sequence of HDAC1 (Q13547 whole entry): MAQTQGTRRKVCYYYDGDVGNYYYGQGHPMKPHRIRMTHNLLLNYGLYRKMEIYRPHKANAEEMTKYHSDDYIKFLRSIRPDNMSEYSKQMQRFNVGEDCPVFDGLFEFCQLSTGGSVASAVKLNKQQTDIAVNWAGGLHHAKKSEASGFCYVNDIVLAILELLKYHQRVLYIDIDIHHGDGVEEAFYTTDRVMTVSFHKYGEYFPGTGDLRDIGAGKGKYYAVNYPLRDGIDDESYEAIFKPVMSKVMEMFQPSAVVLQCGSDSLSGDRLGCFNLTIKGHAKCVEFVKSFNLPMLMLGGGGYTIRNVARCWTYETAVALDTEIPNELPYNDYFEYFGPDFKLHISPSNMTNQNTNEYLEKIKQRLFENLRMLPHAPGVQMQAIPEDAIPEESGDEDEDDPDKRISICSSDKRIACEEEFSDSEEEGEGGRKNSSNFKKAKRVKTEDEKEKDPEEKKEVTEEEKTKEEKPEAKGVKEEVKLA

## CN(Cc1nc2c(N3CCOCC3)nc(-c3ccc(N)cc3)nc2n1C)c1ncc(C(=O)NO)cn1.CS(=O)(=O)O [PM, 2-(((2-(4-Aminophenyl)-9-methyl-6-(4-morpholinyl)-9H-purine-8-yl)methyl)methylamino)-N-hydroxy-5-pyrimidine-carboxamide Mesylate]
HDAC1
  IC50: 0.81 nM
HDAC6
  IC50: 11.5 nM
HDAC10
  IC50: 1.1 nM
HDAC9
  IC50: 622 nM
AMO1
  IC50: 1.78 ± 0.14 nM
Daudi
  IC50: 0.73 ± 0.51 nM
KMS-11
  IC50: 1.99 ± 0.21 nM
Karpas299
  IC50: 1.16 ± 0.14 nM
MM1R
  IC50: 0.33 ± 0.01 nM
MM1S
  IC50: 0.47 ± 0.02 nM
NKYS
  IC50: 0.77 ± 0.07 nM
OPM2
  IC50: 1.78 ± 0.13 nM
RPMI-8226R
  IC50: 2.02 ± 0.3 nM
Raji
  IC50: 1.96 ± 0.18 nM
Ramos
  IC50: 1.24 ± 0.47 nM
SUDHL-4
  IC50: 0.73 ± 0.05 nM
TMD-8
  IC50: 0.99 ± 0.14 nM
[1]
  superior antiproliferation activity compared to panobinostat: ~4 fold
[2]
  complete remission: all mice achieved complete remission
[3]; 2.5 mg/kg
  T/C: 17.75±2.47%
[3]; 2.5 mg/kg, mean of two batches
  tumor inhibition rate: 82.84 ± 2.18%
[3]; 5 mg/kg
  T/C: 10.40±2.97%
  tumor inhibition rate: 87.86 ± 2.38%
  average median survival time: 54.5 ± 5.0 days
[3]; 10 mg/kg
  T/C: 7.35±3.75%
  tumor inhibition rate: 90.86 ± 3.84%
  average median survival time: 58.5 ± 2.1 days
[3]; 20 mg/kg, paused day 28, resumed day 35
  median survival time: 54.4 days
[4]
  Ames test result: negative
[5]; Beagle, dog
  half-life at 1 µM: 1.63 h
  CLint scaled at 1 µM: 20.4 mL/min/kg
[5]; CD-1, mouse
  half-life at 1 µM: > 3.1 h
  CLint scaled at 1 µM: < 29.7 mL/min/kg
[5]; SD, rat
  half-life at 1 µM: > 3.1 h
  CLint scaled at 1 µM: < 13.5 mL/min/kg
[5]; human
  half-life at 1 µM: > 3.1 h
  CLint scaled at 1 µM: < 6.8 mL/min/kg
[5]; monkey
  half-life at 1 µM: 0.0517 h
  CLint scaled at 1 µM: 598 mL/min/kg
